Measurements as given in patent publication US20230354862A1, “ANTI-DIABETIC COMPOSITION CONTAINING BEET MIXTURE AS ACTIVE INGREDIENT” (BAE RYEO INNOVATION CO., LTD., priority 2021, published 2023).

How the values were obtained:
[1] = test system: SD rats; assay: Oral starch tolerance test (OATT); assay type: in vivo, rat
Experimental: As an experimental food, normal mouse feed (Purina Lab Rodent Chow #38057, Purina Co., Seoul Korea) was fed, and during the acclimatization period, filtered water was replaced with fresh one and the animals were allowed access ad libitum to water. During the breeding period, the animals were kept under the following conditions: temperature, 23±1° C.; humidity, 50±5%; noise, 60 phone or less; lighting time, 08:00 to 20:00 (12 hours a day); illumination, 150 to 300 Lux; 10 to 12 ventilations per hour. This experiment was conducted in compliance with the Animal Experimental Ethics Regulations. After completion of the acclimatization period, the experimental animals were divided into groups using the randomized block design based on fasting blood glucose that the mean values between the groups were uniform, and then the animals were marked using an ear punch. […] Changes in blood glucose levels in each group were analyzed based on the measured blood glucose levels. All experimental results were calculated as mean±standard error (mean±S.E.) using the statistical program (SPSS ver. 12.0, SPSS Inc., Chicago, IL, USA). […]

[2] = test system: SD rats; assay: Oral sucrose tolerance test (OSTT); assay type: in vivo, rat; conditions: 3 mg/kg acarbose (A 3)
Experimental: As an experimental food, normal mouse feed (Purina Lab Rodent Chow #38057, Purina Co., Seoul Korea) was fed, and during the acclimatization period, filtered water was replaced with fresh one and the animals were allowed access ad libitum to water. During the breeding period, the animals were kept under the following conditions: temperature, 23±1° C.; humidity, 50±5%; noise, 60 phone or less; lighting time, 08:00 to 20:00 (12 hours a day); illumination, 150 to 300 Lux; 10 to 12 ventilations per hour. This experiment was conducted in compliance with the Animal Experimental Ethics Regulations. After completion of the acclimatization period, the experimental animals were divided into groups using the randomized block design based on fasting blood glucose that the mean values between the groups were uniform, and then the animals were marked using an ear punch. The animals were divided into a normal group, a control group, a group to which 10 mg/kg of the beet mixture was administered (10 mg/kg Beta vulgaris mixture group), a group to which 30 mg/kg of the beet mixture was administered (30 mg/kg Beta vulgaris mixture group), a group to which 30 mg/kg of the beet mixture was administered (30 mg/kg Beta vulgaris mixture group), and a positive control group (3 mg/kg acarbose), each consisting of 8 animals. Using these groups, an oral sucrose tolerance test (OSTT) and an oral starch tolerance test (OATT) were conducted. […] Changes in blood glucose levels in each group were analyzed based on the measured blood glucose levels. All experimental results were calculated as mean±standard error (mean±S.E.) using the statistical program (SPSS ver. 12.0, SPSS Inc., Chicago, IL, USA). Statistically significant differences between experimental groups were tested using a one-way analysis of variance test (ANOVA), and in case of significance (p<0.05), a post-test was performed with the Duncan's multiple range test.

[3] = test system: db/db mice; assay: Glycated hemoglobin (HbA1c) analysis in type 2 diabetes model; assay type: in vivo, mouse; conditions: after 3 weeks, 300 mg/kg metformin (Met 300)
Source text: (§1) As experimental animals, 5-week-old specific-pathogen free (SPF) male db/db mice were obtained from Central Laboratory Animal, Inc. (Seoul, Korea), and acclimated for 1 week before use in the experiment. As an experimental food, normal mouse feed (Purina Lab Rodent Chow #38057, Purina Co., Seoul Korea) was fed, and during the acclimatization period, filtered water was replaced with fresh one daily and the animals were allowed access ad libitum to water. During the breeding period, the animals were kept under the following conditions: temperature, 23±1° C.; humidity, 50±5%; noise, 60 phone or less; lighting time, 08:00 to 20:00 (12 hours a day); illumination, 150 to 300 Lux; 10 to 12 ventilations per hour. This experiment was conducted in compliance with the Animal Experimental Ethics Regulations.
(§2) After completion of the acclimatization period, the experimental animals were divided into groups using the randomized block design based on fasting blood glucose that the mean values between the groups were uniform, and then the animals were marked using an ear punch. […]
(§3) All experimental results were calculated as mean±standard error (S.E.) using SPSS ver. […]

[4] = test system: db/db mice; assay: Tissue weight analysis in type 2 diabetes model; assay type: in vivo, mouse; conditions: 300 mg/kg metformin (Met 300)
Source text: as §1
(§4) After completion of the acclimatization period, the experimental animals were divided into groups using the randomized block design based on fasting blood glucose that the mean values between the groups were uniform, and then the animals were marked using an ear punch. The animals were divided into a normal group, a control group, a group to which 10 mg/kg of the beet mixture was administered (10 mg/kg Beta vulgaris mixture group), a group to which 30 mg/kg of the beet mixture was administered (30 mg/kg Beta vulgaris mixture group), a group to which 30 mg/kg of the beet mixture was administered (30 mg/kg Beta vulgaris mixture group), and a positive control group (300 mg/kg metformin), each consisting of 8 animals. Each sample was orally administered 5 times a week for 3 weeks.
(§5) Weekly body weight and blood sugar level were all measured once a week at a certain time, and food intake and water intake were measured the next day after feeding certain amounts of food and water once a week. Weekly blood glucose levels were measured using blood collected from the caudal veins using a blood glucose meter (AutoCheck, Diatech Korea) at a certain time every week. For autopsy, blood was collected from the abdominal vena cava after inhalation anesthesia and used for blood analysis, and the liver, epididymal fat, pancreas, and kidney were harvested and weighed.
(§6) All experimental results were calculated as mean±standard error (S.E.) using SPSS ver. 12.0 (SPSS Inc., Chicago, IL, USA). Statistically significant differences between experimental groups were tested using a one-way analysis of variance test (ANOVA), and in case of significance (p<0.05), a post-test was performed with the Duncan's multiple range test.

[5] = test system: db/db mice; assay: Oral glucose tolerance test in type 2 diabetes model; assay type: in vivo, mouse; conditions: 300 mg/kg metformin (Met 300)
Source text: as §1, §2, §3

[6] = test system: db/db mice; assay: Weekly biomarker analysis in type 2 diabetes model (body weight, food and water intake, blood glucose); assay type: in vivo, mouse; conditions: 300 mg/kg metformin (Met 300)
Source text: as §1, §4
Weekly body weight and blood sugar level were all measured once a week at a certain time, and food intake and water intake were measured the next day after feeding certain amounts of food and water once a week. Weekly blood glucose levels were measured using blood collected from the caudal veins using a blood glucose meter (AutoCheck, Diatech Korea) at a certain time every week. […]
as §3

[7] = test system: db/db mice; assay: Histological analysis of β-cell area (insulin immunostaining of pancreas); assay type: in vivo, mouse; conditions: 300 mg/kg metformin (Met 300)
Source text: as §1, with “Regulations. […]” for “Regulations.”
Analysis of the islets of Langerhans in the pancreatic tissue was performed by immunostaining. […] After washing twice with TBST buffer for 5 min, samples were reacted with 2.5% normal goat serum for blocking (Vector, USA) for 20 min, and then the blocking reagent and working insulin antibody (Cell Signaling, MA, USA) solution (2 to 10 μl of antibody to 1 ml of Ready-To-Use 2.5% normal goat serum for blocking) was reacted at 4° C. overnight. […]
as §3

[8] = test system: db/db mice; assay: Hematological (serum) analysis in type 2 diabetes model; assay type: in vivo, mouse; conditions: 300 mg/kg metformin (Met 300)
Source text: as §1, §4, §5
Blood was collected from the abdominal vena cava, placed in conical tubes, coagulated for 30 minutes at room temperature, and then centrifuged at 3,000 rpm for 10 minutes. Analysis of blood fructosamine, TC, TG, LDL-C, HDL-C, and VLDL levels were performed by KPNT (Cheongju, Korea), and insulin analysis was performed using an ELISA kit (Crystalchem, USA). HOMA-IR and HOMA-beta levels were calculated based on the blood analysis results.
as §6

C[C@H]1O[C@H](O[C@H]2[C@H](O)[C@@H](O)[C@@H](O[C@H]3[C@H](O)[C@@H](O)C(O)O[C@@H]3CO)O[C@@H]2CO)[C@H](O)[C@@H](O)[C@@H]1N[C@H]1C=C(CO)[C@@H](O)[C@H](O)[C@H]1O (stereo partly drawn) [acarbose]
change in blood glucose after starch administration (AUC) ([1]; 3 mg/kg acarbose (A 3)): 197.32 ± 7.12 mg/dL | blood glucose level at 30 min after starch administration ([1]; 3 mg/kg acarbose oral (A 3)): 90.63 ± 3.80 mg/dL | blood glucose level at 30 min after sucrose administration [2]: 95.88 ± 3.20 mg/dL | blood glucose level at 120 min after sucrose administration [2]: 80.38 ± 1.76 mg/dL | change in blood glucose level after sucrose administration (AUC) [2]: 197.32 ± 7.12 mg/dL

CN(C)C(=N)N=C(N)N [metformin]
HbA1c level [3]: 6.79±0.29% | kidney tissue weight ([4]; after 3 weeks): 0.303 ± 0.008 g | liver tissue weight ([4]; after 3 weeks): 1.97 ± 0.06 g | epididymal fat tissue weight ([4]; at autopsy): 1.761 ± 0.038 g | pancreatic tissue weight ([4]; at autopsy): 0.116 ± 0.005 g | blood glucose level at 30 min after oral glucose administration [5]: 382.0 ± 31.0 mg/dL | change in blood glucose level after glucose administration (OGTT AUC) [5]: 778.06 ± 262.53 mg/dL | blood glucose level at 1 week after sample administration [6]: 167.0 ± 19.1 mg/dL | blood glucose level at 3 weeks after sample administration [6]: 238.8 ± 21.9 mg/dL | body weight at week 3 [6]: 34.04 ± 0.35 g | β-cell area [7]: 83242.23±11320.56 μm^2 | HOMA-IR level (insulin resistance) [8]: 0.975±0.199 | HOMA-β level (insulin secretion ability) [8]: 6.863±0.404 | serum HDL cholesterol level [8]: 105.09 ± 2.63 mg/dL | serum fructosamine level [8]: 319.13 ± 10.89 µmol/L | serum total cholesterol level [8]: 126.50 ± 2.24 mg/dL | LDL cholesterol level ([8]; after 3 weeks): 12.94 ± 0.84 mg/dL | serum insulin level ([8]; after 3 weeks): 12.94 ± 0.84 ng/mL | serum triglyceride level ([8]; after 3 weeks): 236.13 ± 11.87 mg/dL
